Data published in BindingDB's records for PubMed 9353361 (National Institute of Diabetes and Digestive and Kidney …, 1997).
pKi: −log10 of the molar value. Several values for one entry are separate records, joined by “and”; a condition that tells them apart may be missing. Equal values may be shown once.

Target: Gamma-aminobutyric acid receptor subunit alpha-5 (Rattus norvegicus, UniProt P19969)
Sequence (P19969 whole entry): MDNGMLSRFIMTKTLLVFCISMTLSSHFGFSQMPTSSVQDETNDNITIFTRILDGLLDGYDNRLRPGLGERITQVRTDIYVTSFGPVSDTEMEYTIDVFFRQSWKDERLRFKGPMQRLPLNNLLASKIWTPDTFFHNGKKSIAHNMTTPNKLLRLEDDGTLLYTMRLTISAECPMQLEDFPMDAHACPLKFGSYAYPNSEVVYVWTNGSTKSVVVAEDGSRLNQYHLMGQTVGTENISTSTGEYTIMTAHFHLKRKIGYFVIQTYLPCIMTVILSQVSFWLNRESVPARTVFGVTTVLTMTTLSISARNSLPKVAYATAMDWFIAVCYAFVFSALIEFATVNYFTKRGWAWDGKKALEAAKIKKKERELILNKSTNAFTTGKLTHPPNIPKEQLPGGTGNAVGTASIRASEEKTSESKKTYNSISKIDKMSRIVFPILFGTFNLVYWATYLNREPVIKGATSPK

| Structure (SMILES) | pKi |
| --- | --- |
| CN1Cc2c(C(=O)OC(C)(C)C)ncn2-c2ccc(C#C[Si](C)(C)C)cc2C1=O | 8.99 and 9.08 |
| CN1C(=O)CN=C(c2ccccc2)c2cc(C#N)ccc21 | 7.47 |
